Reference: ChEMBL document CHEMBL1201862, “PubChem BioAssay data set” (2004)
Active and inactive are the calls of the source.

Tests used:
[1] = biological target: T1, Microphthalmia-associated transcription factor (Homo sapiens, UniProt O75030); test: reducers of TRPM1 reporter luminescence, concentration series – cell-based, SK-MEL-5, cherry-picked, set 3, MITF inhibitor project, dose response (AID 493073); type: functional;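 also: SK-MEL-5 melanoma cells with luciferase driven by the MITF target TRPM1 promoter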
T1 sequence (O75030 whole entry): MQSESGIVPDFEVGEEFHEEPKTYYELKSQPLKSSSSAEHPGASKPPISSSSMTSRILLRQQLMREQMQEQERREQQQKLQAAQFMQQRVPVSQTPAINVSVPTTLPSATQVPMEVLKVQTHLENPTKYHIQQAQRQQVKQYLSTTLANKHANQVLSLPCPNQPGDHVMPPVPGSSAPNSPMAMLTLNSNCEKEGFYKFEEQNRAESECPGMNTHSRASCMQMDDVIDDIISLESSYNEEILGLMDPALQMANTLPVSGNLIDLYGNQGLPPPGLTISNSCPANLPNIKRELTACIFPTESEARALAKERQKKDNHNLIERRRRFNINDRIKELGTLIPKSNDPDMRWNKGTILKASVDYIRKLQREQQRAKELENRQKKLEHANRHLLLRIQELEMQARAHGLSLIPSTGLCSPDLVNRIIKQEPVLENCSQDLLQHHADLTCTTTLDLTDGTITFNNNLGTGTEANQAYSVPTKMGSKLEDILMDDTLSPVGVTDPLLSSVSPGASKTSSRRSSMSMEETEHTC

[2] = viability loss of HPDE-C7K cells – cell-based, fluorescence, HTS, primary screen (AID 431); type: functional; settings: Homo sapiens
[3] = HPDE-C7 pancreatic duct cell viability loss – fluorescence, HTS (AID 430); type: functional, cell-based; settings: Homo sapiens
[4] = Luminescence Cell-Based Dose Retest to Confirm Inhibitors of Cancer Stem Cells. [Related pubchem assays (depositor defined):AID2717, AID2721]; type: functional; settings: Homo sapiens
[5] = biological target: G-protein coupled receptor 55 (Homo sapiens, UniProt Q9Y2T6); test: selective activators of receptor GPR55 – imaging, U2OS cells, beta-arrestin-GFP redistribution, primary screen (AID 1961); type: functional
[6] = biological target: T2, Estrogen receptor (Homo sapiens, UniProt P03372);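 also: potency for inhibiting coactivator peptide recruitment to the receptor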
T2 sequence (P03372 whole entry): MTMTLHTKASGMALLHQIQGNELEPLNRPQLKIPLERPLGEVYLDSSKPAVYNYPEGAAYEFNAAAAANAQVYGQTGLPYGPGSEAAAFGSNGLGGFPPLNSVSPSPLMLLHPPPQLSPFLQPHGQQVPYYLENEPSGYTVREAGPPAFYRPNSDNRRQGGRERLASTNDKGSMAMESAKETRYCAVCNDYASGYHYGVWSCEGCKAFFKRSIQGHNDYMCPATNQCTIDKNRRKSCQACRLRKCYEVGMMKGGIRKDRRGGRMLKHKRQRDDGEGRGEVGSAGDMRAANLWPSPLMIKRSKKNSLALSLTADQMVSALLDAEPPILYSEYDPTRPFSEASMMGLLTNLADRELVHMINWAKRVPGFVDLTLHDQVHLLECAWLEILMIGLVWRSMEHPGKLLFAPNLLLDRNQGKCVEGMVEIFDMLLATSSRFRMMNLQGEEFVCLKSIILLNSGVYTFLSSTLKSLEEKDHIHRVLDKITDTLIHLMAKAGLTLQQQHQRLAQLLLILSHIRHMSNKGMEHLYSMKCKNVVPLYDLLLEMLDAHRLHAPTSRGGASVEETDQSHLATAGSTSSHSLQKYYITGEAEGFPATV

[7] = biological target: DNA dC->dU-editing enzyme APOBEC-3A (Homo sapiens, UniProt P31941); test: A3A deaminase inhibition for selectivity – biochemical, dose response (AID 504722); type: functional
[8] = biological target: DNA dC->dU-editing enzyme APOBEC-3G (Homo sapiens, UniProt Q9HC16); test: Dose Response confirmation of small molecule APOBEC3G DNA Deaminase Inhibitors via a fluorescence-based single-stranded DNA deaminase assay. [Related pubchem assays (depositor defined):AID493012, AID493028]; type: functional
[9] = viability of uninfected HEp-2 cells – cell-based, HTS, cytotoxicity control for RSV inhibitor project, dose response (AID 2410); type: functional; settings: human respiratory syncytial virus
[10] = tested on: Vero; test: cells; type: functional, cell-based; settings: Chlorocebus sabaeus
[11] = cells
[12] = biological target: T3, Bcl-2-related protein A1 (Mus musculus, UniProt Q07440); type: functional;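 also: confirmatory dose–response counterscreen on Bfl-1, used to check hits from a UBC13 polyubiquitin inhibitor campaign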
T3 sequence (Q07440 whole entry): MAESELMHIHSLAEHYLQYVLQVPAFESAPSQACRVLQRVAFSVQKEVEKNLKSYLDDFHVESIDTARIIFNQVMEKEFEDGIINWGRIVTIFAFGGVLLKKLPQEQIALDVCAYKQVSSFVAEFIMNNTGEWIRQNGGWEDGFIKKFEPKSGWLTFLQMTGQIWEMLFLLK

[13] = biological target: T4, Ubiquitin-conjugating enzyme E2 N (Homo sapiens, UniProt P61088); type: functional;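 also: Dose-response confirmation in a TR-FRET assay detecting UBC13-driven polyubiquitin chain formation, inhibition measured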
T4 sequence (P61088 whole entry): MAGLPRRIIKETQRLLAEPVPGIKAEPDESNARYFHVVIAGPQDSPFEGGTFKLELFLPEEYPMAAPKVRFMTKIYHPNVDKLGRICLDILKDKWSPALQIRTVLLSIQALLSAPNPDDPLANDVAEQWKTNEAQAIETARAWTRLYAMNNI

[14] = biological target: Beta-galactosidase (Escherichia coli, UniProt Q8VNN2); test: detection-enzyme interference by beta-gal modulators – biochemical, E. coli enzyme, set 3, artefact control for CCR6 antagonist project, dose response (AID 504712); type: functional
[15] = tested on: H4; test: Luminescence Cell-Based Dose Response HTS to Identify Activators of 5'UTR Stem-Loop Driven Prion Protein mRNA Translation in H4 Neuroglioblastoma Cells. [Related pubchem assays: 1829 (Project Summary), 1814 (Primary HTS)]; type: functional; settings: Homo sapiens
[16] = Luminescence Cell-Based Dose Response HTS to Identify Activators of Luciferase Translation or Activity in H4 […] Cells. [Related pubchem assays: 1829 (Project Summary), 1814 (Primary HTS)]; type: functional
[17] = Luminescence Cell-Based Dose Confirmation HTS to Identify Activators of 5'UTR Stem-Loop Driven Alpha-Synuclein mRNA Translation in H4 Neuroglioblastoma Cells. [Related pubchem assays: 1829 (Project Summary), 1814 (Primary HTS)]; type: functional
[18] = biological target: Heat shock protein HSP 90-alpha (Homo sapiens, UniProt P07900); type: functional, organism-based
[19] = viability loss in HeLa cells – cytotoxicity control for MgcRacGAP inhibitor project, dose response (AID 624300); type: functional
[20] = microbe, parasite or virus in culture; type: functional; settings: Mycobacterium tuberculosis
[21] = non-specific 3'UTR reporter inhibition in Clone20-Shn3RL – cell-based, Renilla luciferase, cherry-picked, counter-screen for Shn3 inhibitor project, dose response (AID 624133); type: functional
[22] = reduction of Shn3 3'UTR-driven luciferase in osteoblasts – cell-based, Clone20 osteoblasts, firefly luciferase, cherry-picked, dose response (AID 624132); type: functional;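 also: firefly luciferase luminescence from reporter carrying the Shn3 3'UTR in osteoblasts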
[23] = tested on: INS1; test: INS-1E survival protection against cytokine death – cell-based, luminescence, retest, dose response (AID 449756); type: functional; settings: Rattus norvegicus;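 also: cell death triggered by IL-1 beta plus TNF-alpha plus IFN-gamma mixture; protective hits raise ATP signal compared with cytokine alone wells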
[24] = biological target: T5, Rac GTPase-activating protein 1 (Homo sapiens, UniProt Q9H0H5); test: blockers of MgcRacGAP-driven Rac1 GTP hydrolysis – biochemical, ADP Hunter fluorescence, primary and confirmatory, confirmation (AID 624330); type: functional
T5 sequence (Q9H0H5 whole entry): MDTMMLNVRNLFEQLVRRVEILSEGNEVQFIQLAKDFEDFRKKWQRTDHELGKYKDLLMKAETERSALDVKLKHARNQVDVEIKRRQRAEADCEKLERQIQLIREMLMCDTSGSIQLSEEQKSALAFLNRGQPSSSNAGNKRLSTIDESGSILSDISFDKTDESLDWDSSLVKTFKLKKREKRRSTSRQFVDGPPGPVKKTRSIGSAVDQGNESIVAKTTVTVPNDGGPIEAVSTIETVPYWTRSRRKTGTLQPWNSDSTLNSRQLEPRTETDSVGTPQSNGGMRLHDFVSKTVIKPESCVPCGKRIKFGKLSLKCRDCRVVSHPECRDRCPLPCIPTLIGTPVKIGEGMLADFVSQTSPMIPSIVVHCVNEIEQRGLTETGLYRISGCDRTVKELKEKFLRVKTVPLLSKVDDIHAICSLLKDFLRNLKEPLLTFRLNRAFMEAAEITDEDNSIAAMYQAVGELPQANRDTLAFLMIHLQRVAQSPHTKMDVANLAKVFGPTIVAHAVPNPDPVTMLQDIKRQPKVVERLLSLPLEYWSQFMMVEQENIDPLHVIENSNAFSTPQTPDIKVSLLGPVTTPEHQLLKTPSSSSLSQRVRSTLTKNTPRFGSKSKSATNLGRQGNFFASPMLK

[25] = loss of viability in HepG2 cells – cell-based, CellTiter-Glo, cherry-picked, cytotoxicity control for Shn3 inhibitor project, dose response (AID 624134); type: functional
[26] = biological target: T6, Heat shock factor protein 1 (Mus musculus, UniProt P38532); test: enhancement of HSF1-driven luciferase signal – cell-based, NIH3T3, luminescence, dose retest, confirmation (AID 435004); type: functional;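 also: stress induced by proteasome inhibitor MG132 added 30 min after compound; luciferase reporter driven by HSF1 response element in NIH3T3 cells; actives raise luminescence as potentiators of the MG132 stress response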
T6 sequence (P38532 whole entry): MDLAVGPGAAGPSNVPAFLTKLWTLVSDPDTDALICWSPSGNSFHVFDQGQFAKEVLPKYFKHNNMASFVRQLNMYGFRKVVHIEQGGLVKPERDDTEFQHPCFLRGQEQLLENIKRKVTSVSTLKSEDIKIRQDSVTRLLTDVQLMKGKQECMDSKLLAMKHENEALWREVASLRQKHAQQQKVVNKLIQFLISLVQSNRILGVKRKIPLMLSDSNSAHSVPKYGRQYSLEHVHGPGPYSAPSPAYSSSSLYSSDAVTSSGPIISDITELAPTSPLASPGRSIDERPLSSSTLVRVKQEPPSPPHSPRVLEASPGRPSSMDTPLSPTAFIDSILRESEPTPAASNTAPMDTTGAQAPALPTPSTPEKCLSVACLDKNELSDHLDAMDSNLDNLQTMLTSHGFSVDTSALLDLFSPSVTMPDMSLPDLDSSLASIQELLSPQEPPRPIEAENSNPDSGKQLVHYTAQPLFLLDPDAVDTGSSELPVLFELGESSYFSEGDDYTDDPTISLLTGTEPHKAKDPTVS

[27] = biological target: Eukaryotic translation initiation factor 4E (Mus musculus, UniProt P63073); test: blockers of eIF4G binding by eIF4E – biochemical, TR-FRET, dose response (AID 855); type: functional;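 also: potency for disrupting eIF4E binding to eIF4GI seen as loss of FRET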
[28] = biological target: Large T antigen (Simian virus 40, UniProt P03070); type: functional, Betapolyomavirus macacae;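 also: Confirmatory-stage PubChem screen for compounds that inhibit SV40 T antigen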
[29] = biological target: Glucose-6-phosphate 1-dehydrogenase (Homo sapiens, UniProt P11413); test: inhibition of Homo sapiens G6PD, dose series – biochemical, fluorescence, selectivity assay for P. falciparum G6PD inhibitor project, dose response (AID 504792); type: functional
[30] = tested on: H9c2; test: cells; type: functional, cell-based; settings: Rattus norvegicus, H9c2, Myocardium;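 also: confirmatory concentration-response retest of ultra-high-throughput screening hits for modulation of myocardial damage; cell death induced by hydrogen peroxide oxidative stress; compound pretreatment for 60 min then peroxide exposure for 2 h; potency is for protecting the cells against peroxide damage rather than for killing them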

Sequence of G-protein coupled receptor 55 (Q9Y2T6 whole entry): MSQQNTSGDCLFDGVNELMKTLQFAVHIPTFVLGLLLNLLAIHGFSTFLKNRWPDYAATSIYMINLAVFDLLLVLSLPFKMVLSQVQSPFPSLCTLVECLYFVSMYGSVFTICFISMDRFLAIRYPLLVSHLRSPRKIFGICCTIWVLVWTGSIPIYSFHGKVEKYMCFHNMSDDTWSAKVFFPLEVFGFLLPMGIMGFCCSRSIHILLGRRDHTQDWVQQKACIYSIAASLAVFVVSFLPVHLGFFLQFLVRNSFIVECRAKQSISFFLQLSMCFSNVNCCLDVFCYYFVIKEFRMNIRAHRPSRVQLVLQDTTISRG
Sequence of DNA dC->dU-editing enzyme APOBEC-3A (P31941 whole entry): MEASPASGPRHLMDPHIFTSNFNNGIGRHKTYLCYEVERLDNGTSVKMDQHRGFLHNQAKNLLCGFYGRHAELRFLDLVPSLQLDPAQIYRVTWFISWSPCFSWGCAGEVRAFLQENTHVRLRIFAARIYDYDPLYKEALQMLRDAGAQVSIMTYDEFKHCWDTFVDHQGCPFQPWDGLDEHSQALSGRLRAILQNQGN
Sequence of DNA dC->dU-editing enzyme APOBEC-3G (Q9HC16 whole entry): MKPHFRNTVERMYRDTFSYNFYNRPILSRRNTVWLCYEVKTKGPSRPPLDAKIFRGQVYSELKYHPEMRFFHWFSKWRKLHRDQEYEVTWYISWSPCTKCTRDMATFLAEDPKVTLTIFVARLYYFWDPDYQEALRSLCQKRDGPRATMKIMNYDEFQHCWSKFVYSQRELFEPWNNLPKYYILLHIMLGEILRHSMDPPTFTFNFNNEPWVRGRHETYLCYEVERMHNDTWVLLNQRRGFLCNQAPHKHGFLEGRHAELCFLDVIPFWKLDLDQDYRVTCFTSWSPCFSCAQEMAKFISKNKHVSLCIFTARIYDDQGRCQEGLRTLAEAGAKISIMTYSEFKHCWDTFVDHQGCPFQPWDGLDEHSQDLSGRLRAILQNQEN
Sequence of Beta-galactosidase (Q8VNN2 whole entry): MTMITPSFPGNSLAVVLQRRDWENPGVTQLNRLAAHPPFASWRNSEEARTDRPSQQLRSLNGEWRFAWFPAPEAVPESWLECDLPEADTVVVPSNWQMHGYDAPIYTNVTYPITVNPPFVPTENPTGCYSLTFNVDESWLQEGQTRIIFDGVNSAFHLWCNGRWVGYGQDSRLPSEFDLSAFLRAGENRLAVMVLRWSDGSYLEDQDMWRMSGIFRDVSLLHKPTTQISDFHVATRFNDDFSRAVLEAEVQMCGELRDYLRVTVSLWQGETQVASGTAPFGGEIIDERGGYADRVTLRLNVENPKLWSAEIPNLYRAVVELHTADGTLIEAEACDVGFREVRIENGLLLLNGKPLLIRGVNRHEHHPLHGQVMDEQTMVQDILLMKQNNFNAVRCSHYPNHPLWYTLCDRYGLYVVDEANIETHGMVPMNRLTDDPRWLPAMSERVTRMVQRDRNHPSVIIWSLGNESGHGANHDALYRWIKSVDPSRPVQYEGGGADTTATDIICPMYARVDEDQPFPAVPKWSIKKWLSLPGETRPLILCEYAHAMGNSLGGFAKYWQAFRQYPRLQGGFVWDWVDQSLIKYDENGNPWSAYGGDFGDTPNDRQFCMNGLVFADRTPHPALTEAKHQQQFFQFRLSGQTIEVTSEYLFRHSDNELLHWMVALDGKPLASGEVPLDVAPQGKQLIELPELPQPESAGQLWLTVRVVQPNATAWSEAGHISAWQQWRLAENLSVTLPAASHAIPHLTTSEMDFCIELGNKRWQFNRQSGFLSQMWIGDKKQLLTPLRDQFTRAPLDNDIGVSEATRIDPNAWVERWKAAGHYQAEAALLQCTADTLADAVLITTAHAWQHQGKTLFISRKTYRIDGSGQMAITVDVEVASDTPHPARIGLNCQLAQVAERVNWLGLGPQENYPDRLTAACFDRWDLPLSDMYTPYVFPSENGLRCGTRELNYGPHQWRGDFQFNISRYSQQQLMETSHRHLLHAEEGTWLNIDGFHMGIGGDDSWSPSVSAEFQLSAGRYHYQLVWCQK
Sequence of Eukaryotic translation initiation factor 4E (P63073 whole entry): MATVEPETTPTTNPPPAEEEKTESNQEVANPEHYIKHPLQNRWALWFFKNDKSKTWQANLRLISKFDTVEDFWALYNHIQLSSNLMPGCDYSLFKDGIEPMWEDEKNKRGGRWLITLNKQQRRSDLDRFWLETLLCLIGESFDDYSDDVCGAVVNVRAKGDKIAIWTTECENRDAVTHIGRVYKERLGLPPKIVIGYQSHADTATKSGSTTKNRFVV
Sequence of Glucose-6-phosphate 1-dehydrogenase (P11413 whole entry): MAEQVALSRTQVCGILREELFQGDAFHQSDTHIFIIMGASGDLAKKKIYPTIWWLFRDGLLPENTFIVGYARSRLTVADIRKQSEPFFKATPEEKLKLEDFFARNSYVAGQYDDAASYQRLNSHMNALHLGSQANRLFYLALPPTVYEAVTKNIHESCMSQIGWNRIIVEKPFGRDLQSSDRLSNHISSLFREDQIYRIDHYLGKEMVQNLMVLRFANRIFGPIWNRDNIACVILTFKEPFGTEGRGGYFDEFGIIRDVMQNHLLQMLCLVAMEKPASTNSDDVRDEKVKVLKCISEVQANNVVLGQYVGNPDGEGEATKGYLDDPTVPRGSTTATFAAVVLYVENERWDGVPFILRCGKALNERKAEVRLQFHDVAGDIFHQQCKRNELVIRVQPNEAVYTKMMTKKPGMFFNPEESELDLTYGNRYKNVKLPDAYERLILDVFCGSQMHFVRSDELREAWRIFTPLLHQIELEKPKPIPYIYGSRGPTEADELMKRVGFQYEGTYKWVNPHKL
Sequence of Large T antigen (P03070 whole entry): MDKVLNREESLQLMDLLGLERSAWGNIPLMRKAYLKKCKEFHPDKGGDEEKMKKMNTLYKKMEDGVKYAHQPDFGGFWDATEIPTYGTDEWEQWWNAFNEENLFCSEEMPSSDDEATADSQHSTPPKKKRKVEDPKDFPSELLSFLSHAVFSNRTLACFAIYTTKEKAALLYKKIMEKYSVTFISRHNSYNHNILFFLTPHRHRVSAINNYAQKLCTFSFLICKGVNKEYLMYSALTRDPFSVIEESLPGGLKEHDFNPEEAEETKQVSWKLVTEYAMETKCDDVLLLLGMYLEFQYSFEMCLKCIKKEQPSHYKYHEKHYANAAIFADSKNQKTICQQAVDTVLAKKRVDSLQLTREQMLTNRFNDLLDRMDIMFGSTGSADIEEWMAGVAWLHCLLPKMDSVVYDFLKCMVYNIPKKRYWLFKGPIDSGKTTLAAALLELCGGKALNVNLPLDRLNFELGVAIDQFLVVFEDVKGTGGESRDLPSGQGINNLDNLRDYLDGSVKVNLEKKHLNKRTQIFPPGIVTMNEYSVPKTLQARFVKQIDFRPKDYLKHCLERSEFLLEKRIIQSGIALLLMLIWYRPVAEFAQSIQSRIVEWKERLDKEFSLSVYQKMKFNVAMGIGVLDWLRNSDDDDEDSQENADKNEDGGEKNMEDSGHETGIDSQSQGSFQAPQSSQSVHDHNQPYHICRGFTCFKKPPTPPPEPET

In the case of `CCOC(=O)c1c(C)oc2c(F)c(F)c(F)c(F)c2c1=O`, the AC50 [1] is reported as 2.32 µM (active), the EC50 [2] is reported as 1.49 µM (active) and the EC50 [3] is reported as 1.55 µM (active). For the same compound, the AC50 [4] was 1.26 µM (active).
For `Cc1nc(SCc2ccc(F)cc2)c2oc3ccccc3c2n1`, the EC50 [5] was > 32 µM (inactive).
With `CN(C)c1nc(N/N=C\c2ccc(Cl)c([N+](=O)[O-])c2)nc(Nc2ccc(F)cc2)n1` the IC50 [6] was > 50 µM (not active).
In the case of `CCCc1cc(-c2n[nH]c(=S)n2CC)cs1`, the IC50 [7] is reported as > 100 µM (inactive) and the IC50 [8] is reported as 6.08 µM (active).
For `O=C(Nc1cc(S(=O)(=O)N2CCOCC2)ccc1N1CCOCC1)c1cc2c(s1)CCC2`, the EC50 [5] was 6.36 µM (active).
For `CN1c2ccccc2C(C)(C)C12CC(c1ccc(S(=O)(=O)N3CCCCC3)cc1)=NO2` (stereo not drawn), the CC50 [9] was 6.73 µM (active), the IC50 [10] was 4.14 µM (active) and the IC50 [11] was 12 µM (active).
In the case of `O=C(CSc1nc2ccsc2c(=O)n1Cc1ccc(C(=O)O)cc1)NCC1CCCO1` (stereo not drawn), the IC50 [12] is reported as > 20 µM (inactive) and the IC50 [13] is reported as 17.5 µM (active).
For `CCN(CC)CCn1c(NC(=O)c2ccccc2O)nc2ccccc21`, the IC50 [14] was > 66.6 µM (inactive).
In the case of `Clc1ccccc1-c1nc2ccccc2[nH]1`, the EC50 [15] is reported as 13.7 µM (active), the EC50 [5] is reported as 2.24 µM (active) and the EC50 [16] is reported as 0.36 µM (active). For the same compound, the EC50 [17] was 0.289 µM (active).
With `CN(c1ccccc1)c1ccc(/C=C/[N+](=O)[O-])cc1` the IC50 [14] was > 66.6 µM (inactive), the AC50 [18] was 8.67 µM (active) and the CC50 [19] was 38.5 µM (active). For the same compound, the CC50 [20] was 25.9 µM (active), the AC50 [21] was 17.5 µM (active) and the AC50 [22] was 5.79 µM (active). The AC50 [23] was 6.67 µM (active), the IC50 [24] was 23.3 µM (active) and the AC50 [25] was 18 µM (active). For the same compound, the EC50 [26] was 5.04 µM (inconclusive).
With `CCN(CC)CCNC(=O)CCCCn1c(=S)[nH]c2c([nH]c3ccc(OC)cc32)c1=O` the IC50 [27] was > 64 µM (inactive), the IC50 [28] was 8.17 µM (active) and the IC50 [7] was > 100 µM (inactive). The IC50 [8] was 2.5 µM (active) and the IC50 [29] was > 80 µM (inactive).
In the case of `c1csc(-c2nc3c4ccccc4c4ccccc4c3[nH]2)c1`, the IC50 [11] is reported as 5.21 µM (active).
For `COc1cccc(-c2nnc(NC(=O)c3ccc(Cl)s3)o2)c1`, the IC50 [14] was > 66.6 µM (inactive) and the IC50 [30] was > 79 µM (inactive).
With `COc1ccccc1NC(=O)Nc1nc(C(C)(C)C)cs1` the CC50 [9] was > 50 µM (active), the IC50 [11] was 30.3 µM (active) and the IC50 [13] was > 20 µM (inactive).
In the case of `CCN(CC)S(=O)(=O)c1ccc2c(c1)nc(CCC(=O)Nc1cccc(C(F)(F)F)c1)n2CC`, the EC50 [5] is reported as 7.88 µM (active).
In the case of `O=[N+]([O-])c1cc2c(cc1/C=N/n1c(S)nnc1-c1ccccc1)OCO2`, the IC50 [7] is reported as > 100 µM (inactive) and the IC50 [8] is reported as 1.89 µM (active).
